The compounds below were run on Neural Progenitor Cell (NPCs) from E14 mouse neocortex (assay: Neurosphere counts in 96-well plates). Conditions: Sphingomyelin Low dose (Dose 1: 10 nM); cells grown for 2 days.
Type: cell-based
Description: (§1) Generation of Neural Progenitor Cell (NPCs) Libraries: • dissociation of E14 mouse neocortex
(§2) E14 pup brains were harvested and placed in ice cold DPBS (1×)+10% Pen/Strep, then they were dissected using a dissecting microscope. From each pup, one brain hemisphere was placed in 2 ml of Neurobasal media/10% P/S/10× Hepes and another brain hemisphere was placed in another tube.
(§3) The tissue from each tube was aseptically and manually dissociate into single cells, neurobasal complete medium was added and centrifuged at 130 G for 5 min. The tissue was then re-suspended in neurobasal complete media with GF and placed in a corning suspension culture dish 100 mm×20 mm (#430591). Cells were passage twice using a 1:3 ratio, after what they were centrifuged (130 g 5 min), resuspended in freezing media (10% DMSO and neurobasal complete media, no GF) and frozen in liquid nitrogen (LN2).
Vials were remove from LN2, quickly defrosted, and cells were transferred, dropwise, to a 15 mL conical flask. 10 mls of complete neurobasal media was added. Cells were transferred to a suspension culture dish, and placed in an incubator for 2 hours. At 1.5 hours, cells were examined. Based on the health and number, the number of plates needed was estimated and the appropriate amount of complete neurobasal media was warmed. After 2 hours, cells were put in a 15 mL conical tube and spun at 130 G, 5 min. […]

Compound | number of neurospheres, Average (Mean)
Sphingomyelin | 94

What follows are compounds tested on Neural Progenitor Cell (NPCs) from E14 mouse neocortex (assay: Monolayer culture NPC proliferation assay). Conditions: Sphingomyelin low dose (Dose 1: 10 nM); 3 days culture.
Type: cell-based
Description: as §1, §2, §3
Vials were remove from LN2, quickly defrosted, and cells were transferred, dropwise, to a 15 mL conical flask. 10 mls of complete neurobasal media was added. Cells were transferred to a suspension culture dish, and placed in an incubator for 2 hours. At 1.5 hours, cells were examined. […]
EDU incorporation was measured using Click-iT® EdU Alexa Fluor® 555 Imaging Kit (Life technologies, #c10338). […]

Compound | neuronal proliferation, DAPI
Sphingomyelin | 280

What follows are compounds tested on brain myelination (myelin water fraction) (assay: Cross-sectional correlation of infant formula nutrient content with brain myelination (MRI myelin water fraction)). Conditions: children up to 5 years fed different infant formulas.
Type: in vivo, human
Description: This technique provides a quantitative measure, the Myelin Water Fraction (MWF), which is a surrogate marker of myelin content in the brain.
Infants included in this study were drawn from a larger longitudinal study of normal brain and behavioral development: the Brown University Assessment of Myelination and Behavior Across Maturation (BAMBAM). To focus on neurotypical development, children with known potential risk factors for learning, neurologic, or psychiatric disorders were specifically excluded during recruitment and enrollment. Thus, children with in utero alcohol or illicit substance exposure, premature (<37 weeks gestation) or multiple birth, fetal ultrasound abnormalities, complicated pregnancy (e.g., preeclampsia), APGAR scores <8, NICU admission, neurological disorder (e.g., head injury, epilepsy), psychiatric or developmental disorders in the infant, parents or siblings (including maternal depression requiring medication) were excluded. Ongoing screenings, such as the MCAT for autism, or CBCL for behavioral problems, were further used to remove enrolled children with clinically concerning behaviors or overt medical conditions (such as autism spectrum disorders).
A combination of retrospective and prospective data were acquired from parents via detailed medical histories and parental interview on the type of infant formula used, percentage of breastfeeding to formula feeding, and length of exclusive breastfeeding. This information was updated at each study visit, which occurred approximately every 6 months for children under 2 years, and yearly for older children. Using this information, children were categorized into one of 2 groups: #1. Exclusively formula-fed; and #2. Exclusively breastfed for at least 90 days (3 months). Children who were fed a combination of breastmilk and formula within 3 months were excluded from our analysis. Infants within the exclusively formula-fed group were further sub-divided based on parental reports of the main infant formula used throughout the first 3 months. Main formula was defined as that given 90% of the time or more (in the case were parents used an alternate brand during vacation, for example).
Using these criteria, 94 exclusively formula-fed infants and young children were selected into group #1. These included 13 children who received formula #2; 28 who received formula #5; 8 who received formula #3; 39 who received formula #4; 5 who received formula #1 and 1 who received formula #6. A sample of 52 exclusively breast-fed infants were also selected and matched to the over formula-fed group with regards to mean age, gestation duration, birth weight, male:female ratio, ethnicity ratio, maternal education, family size, and number of languages spoken in the home (in addition to English).

Compound | association of nutrient with myelination (myelin water fraction) over time in the brain
CCCCC/C=C\C/C=C\C/C=C\C/C=C\CCCC(=O)O [AA, arachidonic acid] | an association with myelination (myelin water fraction) was observed
[Ca+2] [calcium] | an association with myelination (myelin water fraction) was observed
[Mg+2] [magnesium] | an association with myelination (myelin water fraction) was observed
[P] [phosphorus] | an association with myelination (myelin water fraction) was observed
[Zn] [zinc] | an association with myelination (myelin water fraction) was observed
Sphingomyelin | an association with myelination (myelin water fraction) was observed
iron | an association with myelination (myelin water fraction) was observed
phosphatidylcholine | an association with myelination (myelin water fraction) was observed
phosphatidylinositol | an association with myelination (myelin water fraction) was observed
vitamin B12 | an association with myelination (myelin water fraction) was observed

Reference: US11986445B2, “Nutritional composition and infant formula for promoting myelination of the brain” (SOCIÉTÉ DES PRODUITS NESTLÉ S.A., priority 2015, dated 2024)
